According to PubChem BioAssay AID192 (DTP/NCI, 2004):
Several values for one entry are separate records, joined by “and”; a condition that tells them apart may be missing. Identical values can stand only once. Inconclusive results and toxic doses are left out.

Test system: BDF1 mice, B16 melanoma ip, median survival T/C
Assay: NCI In Vivo Anticancer Drug Screen. Data for tumor model B16 Melanoma (intraperitoneal) in B6D2F1 (BDF1) mice
Settings: endpoint: median survival time, higher = longer survival
Procedure, shortened: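 Vehicle-treated animals serve as the reference (C); treated animals (T) are scored for survival or tumor size after tumor transplantation.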

[1] = dose: 12.5 mg/kg/injection, schedule: Q01DX009 (ip), vehicle: saline with Tween-80
[2] = dose: 25.0 mg/kg/injection, schedule: Q01DX009 (ip), vehicle: saline with Tween-80
[3] = dose: 50.0 mg/kg/injection, schedule: Q01DX009 (ip), vehicle: saline with Tween-80
[4] = dose: 100.0 mg/kg/injection, schedule: Q01DX009 (ip), vehicle: saline with Tween-80
[5] = dose: 75.0 mg/kg/injection, schedule: Q01DX009 (ip), vehicle: Klucel (hydroxypropylcellulose) (HPC)
[6] = dose: 150.0 mg/kg/injection, schedule: Q01DX009 (ip), vehicle: Klucel (hydroxypropylcellulose) (HPC)
[7] = dose: 300.0 mg/kg/injection, schedule: Q01DX009 (ip), vehicle: Klucel (hydroxypropylcellulose) (HPC)
[8] = dose: 12.5 mg/kg/injection, schedule: Q01DX009 (ip), vehicle: saline
[9] = dose: 25.0 mg/kg/injection, schedule: Q01DX009 (ip), vehicle: saline
[10] = dose: 50.0 mg/kg/injection, schedule: Q01DX009 (ip), vehicle: saline
[11] = dose: 100.0 mg/kg/injection, schedule: Q01DX009 (ip), vehicle: saline
[12] = dose: 200.0 mg/kg/injection, schedule: Q01DX009 (ip), vehicle: saline
[13] = dose: 0.5 mg/kg/injection, schedule: Q01DX009 (ip), vehicle: Klucel (hydroxypropylcellulose) (HPC)
[14] = dose: 1.0 mg/kg/injection, schedule: Q01DX009 (ip), vehicle: Klucel (hydroxypropylcellulose) (HPC)
[15] = dose: 100.0 mg/kg/injection, schedule: Q01DX009 (ip), vehicle: Klucel (hydroxypropylcellulose) (HPC)
[16] = dose: 200.0 mg/kg/injection, schedule: Q01DX009 (ip), vehicle: Klucel (hydroxypropylcellulose) (HPC)
[17] = dose: 6.25 mg/kg/injection, schedule: Q01DX009 (ip), vehicle: Klucel (hydroxypropylcellulose) (HPC)
[18] = dose: 12.5 mg/kg/injection, schedule: Q01DX009 (ip), vehicle: Klucel (hydroxypropylcellulose) (HPC)
[19] = dose: 400.0 mg/kg/injection, schedule: Q01DX009 (ip), vehicle: Klucel (hydroxypropylcellulose) (HPC)
[20] = dose: 0.25 mg/kg/injection, schedule: Q01DX009 (ip), vehicle: Klucel (hydroxypropylcellulose) (HPC)

`O=[n+]1ccn2cc3ccccc3cc2c1` was tested, and the T/C (dose: 3.75 mg/kg/injection, schedule: Q01DX009 (ip), vehicle: saline) was 102 % of control and the T/C (dose: 7.5 mg/kg/injection, schedule: Q01DX009 (ip), vehicle: saline) was 105 % of control.
In the case of `CN=C(N)N/N=C(\C)c1ccc2c(c1)Cc1ccccc1-2`, the T/C [1] is reported as 110 % of control, the T/C [2] is reported as 115 % of control and the T/C [3] is reported as 120 % of control. For the same compound, the T/C [4] was 112 % of control.
In the case of `CC(C)(C)OC(=O)C(CSSCC(NC(=O)OCc1ccccc1)C(=O)OC(C)(C)C)NC(=O)OCc1ccccc1` (stereo not drawn), the T/C [5] is reported as 94 % of control, the T/C [6] is reported as 100 % of control and the T/C [7] is reported as 88 % of control.
In the case of `CN(C)C(=O)c1cccc(NC(=O)NCc2cccc(N3C(N)=NC(N)=NC3(C)C)c2)c1`, the T/C [8] is reported as 107 % of control, the T/C [9] is reported as 117 % of control and the T/C [10] is reported as 102 % of control.
With `Cc1c(NCO)c(=O)n(-c2ccccc2)n1C` the T/C [11] was 102 % of control, the T/C [12] was 94 % of control and the T/C (dose: 400.0 mg/kg/injection, schedule: Q01DX009 (ip), vehicle: saline) was 91 % of control.
For `CCCCCCCC/C=C\CCCCCCCC(=O)N(C)CC(=O)O`, the T/C [1] was 118 % of control, the T/C [2] was 105 % of control and the T/C [3] was 104 % of control.
With `C1=CC2CC3(OCCO3)C2C1` (stereo not drawn) the T/C [3] was 88 % of control, the T/C [4] was 106 % of control and the T/C (dose: 200.0 mg/kg/injection, schedule: Q01DX009 (ip), vehicle: saline with Tween-80) was 93 % of control.
`C[n+]1ccc(Nc2ccc(NC(=O)c3ccc(Nc4cc[n+](C)c5ccc(N)cc45)cc3)cc2)cc1` was tested, and the T/C [13] was 105 % of control, the T/C [14] was 98 % of control and 101 % of control and the T/C (dose: 1.0 mg/kg/injection, schedule: Q02DX009 (ip), vehicle: Klucel (hydroxypropylcellulose) (HPC)) was 100 % of control and 116 % of control. For the same compound, the T/C (dose: 2.0 mg/kg/injection, schedule: Q01DX009 (ip), vehicle: Klucel (hydroxypropylcellulose) (HPC)) was 105 % of control and 108 % of control and 111 % of control, the T/C (dose: 2.0 mg/kg/injection, schedule: Q02DX009 (ip), vehicle: Klucel (hydroxypropylcellulose) (HPC)) was 106 % of control and 112 % of control and the T/C (dose: 4.0 mg/kg/injection, schedule: Q01DX009 (ip), vehicle: Klucel (hydroxypropylcellulose) (HPC)) was 103 % of control and 111 % of control and 120 % of control. The T/C (dose: 4.0 mg/kg/injection, schedule: Q02DX009 (ip), vehicle: Klucel (hydroxypropylcellulose) (HPC)) was 109 % of control and 112 % of control, the T/C (dose: 8.0 mg/kg/injection, schedule: Q01DX009 (ip), vehicle: Klucel (hydroxypropylcellulose) (HPC)) was 109 % of control and 123 % of control and 124 % of control and the T/C (dose: 8.0 mg/kg/injection, schedule: Q02DX009 (ip), vehicle: Klucel (hydroxypropylcellulose) (HPC)) was 107 % of control and 118 % of control. The T/C (dose: 16.0 mg/kg/injection, schedule: Q02DX009 (ip), vehicle: Klucel (hydroxypropylcellulose) (HPC)) was 98 % of control and 110 % of control.
`NC(=O)c1ncn2c(=O)n(CCCl)nnc12` was tested, and the T/C (dose: 6.25 mg/kg/injection, schedule: Q01DX009 (ip), vehicle: saline) was 158 % of control, the T/C [8] was 216 % of control and the T/C [9] was 207 % of control. The T/C [10] was 96 % of control.
With `O=c1c2ccccc2[nH]c(=S)n1C1CCCCC1` the T/C [15] was 90 % of control and the T/C [16] was 90 % of control.
For `COc1ccc(CC(C(=O)O)C(Cc2ccc(OC)c(OC)c2)C(=O)O)cc1OC` (stereo not drawn), the T/C [15] was 94 % of control and the T/C [16] was 89 % of control.
For `CCCSc1ncnc2nc[nH]c12`, the T/C [1] was 102 % of control, the T/C [2] was 102 % of control and the T/C [3] was 97 % of control and 115 % of control. For the same compound, the T/C [4] was 107 % of control.
With `CCOC(=O)c1cnc(SC)nc1Sc1ccc(Cl)cc1` the T/C (dose: 100.0 mg/kg/injection, schedule: Q04DX003 (ip), vehicle: Klucel (hydroxypropylcellulose) (HPC)) was 100 % of control, the T/C (dose: 200.0 mg/kg/injection, schedule: Q04DX003 (ip), vehicle: Klucel (hydroxypropylcellulose) (HPC)) was 99 % of control and the T/C (dose: 400.0 mg/kg/injection, schedule: Q04DX003 (ip), vehicle: Klucel (hydroxypropylcellulose) (HPC)) was 89 % of control.
`CN(N)P(=S)(c1ccccc1)N(C)N` was tested, and the T/C [17] was 106 % of control and the T/C [18] was 103 % of control.
For `CC1CCC2(C(=O)O)CCC3(C)C(=CCC4C5(C)CCC(O)C(C)(C)C5CCC43C)C2C1C` (stereo not drawn), the T/C [15] was 98 % of control and the T/C [16] was 91 % of control.
For `COc1ccc(OC(=O)Nc2ccccc2OC)cc1`, the T/C [15] was 100 % of control, the T/C [16] was 93 % of control and the T/C [19] was 93 % of control.
For `CCCCCCCCCCCCCCCCCN`, the T/C [17] was 103 % of control, the T/C [18] was 100 % of control and the T/C (dose: 25.0 mg/kg/injection, schedule: Q01DX009 (ip), vehicle: Klucel (hydroxypropylcellulose) (HPC)) was 93 % of control.
In the case of `O=c1n[n+]([O-])ccn1C1OC(CO)C(O)C1O` (stereo not drawn), the T/C [9] is reported as 92 % of control and 108 % of control, the T/C [10] is reported as 102 % of control and 115 % of control and the T/C [11] is reported as 115 % of control and 120 % of control. The T/C [12] was 122 % of control.
With `CCOc1ccccc1NC(=O)Nc1ccc(Cl)cc1` the T/C [15] was 110 % of control, the T/C [16] was 103 % of control and the T/C [19] was 100 % of control.
With `O=C(O[Si](Cc1ccccc1)(Cc1ccccc1)Cc1ccccc1)N(CCCl)CCCl` the T/C (dose: 6.25 mg/kg/injection, schedule: Q01DX009 (ip), vehicle: saline with Tween-80) was 100 % of control, the T/C [1] was 112 % of control and the T/C [2] was 104 % of control. For the same compound, the T/C [3] was 108 % of control.
With `Nc1ccc2ncccc2c1` the T/C [8] was 111 % of control, the T/C [9] was 105 % of control and the T/C [10] was 109 % of control.
`CCCC(=O)OC1C=C2N3C(=O)C4CC56C(=CC(OC(C)=O)C7OC75)N4C(=O)C3CC26C2OC12` (stereo not drawn) was tested, and the T/C (dose: 0.13 mg/kg/injection, schedule: Q01DX009 (ip), vehicle: Klucel (hydroxypropylcellulose) (HPC)) was 90 % of control, the T/C [20] was 101 % of control and the T/C [13] was 90 % of control.
With `CC(=O)c1ccc2ccccc2c1O` the T/C [1] was 107 % of control, the T/C [2] was 93 % of control and the T/C [3] was 106 % of control. For the same compound, the T/C (dose: 100.0 mg/kg/injection, schedule: Q04DX003 (ip), vehicle: saline with Tween-80) was 100 % of control, the T/C (dose: 200.0 mg/kg/injection, schedule: Q04DX003 (ip), vehicle: saline with Tween-80) was 110 % of control and the T/C (dose: 400.0 mg/kg/injection, schedule: Q04DX003 (ip), vehicle: saline with Tween-80) was 100 % of control.
In the case of `CC[C@H]1CN2CCc3cc(OC)c(OC)cc3[C@@H]2C[C@@H]1C[C@H]1NCCc2c1[nH]c1ccc(O)cc21`, the T/C [20] is reported as 111 % of control, the T/C [13] is reported as 114 % of control and the T/C [14] is reported as 123 % of control.
In the case of `CCOC(Cl)CCl` (stereo not drawn), the T/C [1] is reported as 97 % of control and the T/C [2] is reported as 102 % of control.
In the case of `N#CO`, the T/C (dose: 18.7 mg/kg/injection, schedule: Q01DX009 (ip), vehicle: saline) is reported as 100 % of control, the T/C (dose: 37.5 mg/kg/injection, schedule: Q01DX009 (ip), vehicle: saline) is reported as 105 % of control and the T/C (dose: 75.0 mg/kg/injection, schedule: Q01DX009 (ip), vehicle: saline) is reported as 105 % of control.
`O=C(Nc1cccc(Cl)c1)OCC(Cl)(Cl)Cl` was tested, and the T/C [5] was 109 % of control, the T/C [6] was 103 % of control and the T/C [7] was 103 % of control.
In the case of `CCCCCCCC(O)CCCCC` (stereo not drawn), the T/C [15] is reported as 99 % of control, the T/C [16] is reported as 103 % of control and the T/C [19] is reported as 94 % of control.
